Experimental data taken from patent publication US20210045385A1, “PYRIDAZINONE-SUBSTITUTED KETOXIMES AS HERBICIDES” (FMC Corporation, priority 2018, published 2021).

What was measured:
Assay type in all cases: in vivo
[1] = system: foxtail, green (green foxtail, Setaria viridis); test: Test A preemergence, visual plant response rating; conditions: 500 g ai/ha Preemergence; approx. 10 days
Method in brief: (§1)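 Ratings 0–100 (100 = complete control), visual, vs untreated controls at ~10 days. Application pre- or postemergence; solvent mixture with surfactant; loam/sand medium.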

[2] = system: barnyardgrass (Echinochloa crus-galli); test: Test A preemergence, visual plant response rating; conditions: 500 g ai/ha Preemergence; approx. 10 days
Method in brief: as §1

[3] = system: ragweed (common ragweed, Ambrosia elatior); test: Test A preemergence, visual plant response rating; conditions: 500 g ai/ha Preemergence; approx. 10 days
Method in brief: as §1

[4] = system: Italian ryegrass (Lolium multiflorum); test: Test A preemergence, visual plant response rating; conditions: 500 g ai/ha Preemergence; approx. 10 days
Method in brief: as §1

kochia (Kochia scoparia) [5] = test: Test A preemergence, visual plant response rating; conditions: 500 g ai/ha Preemergence; approx. 10 days
Method in brief: as §1

[6] = system: pigweed (Amaranthus retroflexus); test: Test A preemergence, visual plant response rating; conditions: 500 g ai/ha Preemergence; approx. 10 days
Method in brief: as §1

[7] = system: blackgrass (Alopecurus myosuroides); test: Test A postemergence, visual plant response rating; conditions: 500 g ai/ha, postemergence; 0 is no effect, 100 is complete control
Method in brief: as §1

[8] = system: foxtail, green (green foxtail, Setaria viridis); test: Test A postemergence, visual plant response rating; conditions: 500 g ai/ha, postemergence; 0 is no effect, 100 is complete control
Method in brief: as §1

[9] = system: barnyardgrass (Echinochloa crus-galli); test: Test A postemergence, visual plant response rating; conditions: 500 g ai/ha, postemergence; 0 is no effect, 100 is complete control
Method in brief: as §1

[10] = system: galium (catchweed bedstraw, Galium aparine); test: Test A postemergence, visual plant response rating; conditions: 500 g ai/ha, postemergence; 0 is no effect, 100 is complete control
Method in brief: as §1

[11] = system: ragweed (common ragweed, Ambrosia elatior); test: Test A postemergence, visual plant response rating; conditions: 500 g ai/ha, postemergence; 0 is no effect, 100 is complete control
Method in brief: as §1

[12] = system: wheat (Triticum aestivum); test: Test A postemergence, visual plant response rating; conditions: 500 g ai/ha, postemergence; 0 is no effect, 100 is complete control
Method in brief: as §1

[13] = system: Italian ryegrass (Lolium multiflorum); test: Test A postemergence, visual plant response rating; conditions: 500 g ai/ha, postemergence; 0 is no effect, 100 is complete control
Method in brief: as §1

kochia (Kochia scoparia) [14] = test: Test A postemergence, visual plant response rating; conditions: 500 g ai/ha, postemergence; 0 is no effect, 100 is complete control
Method in brief: as §1

[15] = system: pigweed (Amaranthus retroflexus); test: Test A postemergence, visual plant response rating; conditions: 500 g ai/ha, postemergence; 0 is no effect, 100 is complete control
Method in brief: as §1

corn (Zea mays) [16] = test: Test A postemergence, visual plant response rating; conditions: 500 g ai/ha, postemergence; 0 is no effect, 100 is complete control
Method in brief: as §1

kochia (Bassia scoparia) [17] = test: Test C postemergence, visual plant response rating
Method in brief: (§2)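 Compounds in a non-phytotoxic solvent with surfactant were applied as a directed soil spray preemergence or to 2–10 cm, one- to two-leaf plants postemergence, in loam–sand soil. After about 10 d in a greenhouse, injury was visually rated against untreated controls on a 0–100 scale (100 = complete control).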

[18] = system: blackgrass (Alopecurus myosuroides); test: Test C postemergence, visual plant response rating
Method in brief: as §2

[19] = system: Italian ryegrass (Lolium mutiflorum); test: Test C postemergence, visual plant response rating
Method in brief: as §2

[20] = system: barnyardgrass (Echinochloa crus-galli); test: Test C postemergence, visual plant response rating
Method in brief: as §2

[21] = system: galium (catchweed bedstraw, Galium aparine); test: Test C postemergence, visual plant response rating
Method in brief: as §2

[22] = system: ragweed (common ragweed, Ambrosia artemisiifolia); test: Test C postemergence, visual plant response rating
Method in brief: as §2

[23] = system: wheat (Triticum aestivum); test: Test C postemergence, visual plant response rating
Method in brief: as §2

[24] = system: pigweed (Amaranthus retroflexus); test: Test C postemergence, visual plant response rating
Method in brief: as §2

corn (Zea mays) [25] = test: Test C postemergence, visual plant response rating
Method in brief: as §2

[26] = system: foxtail, giant (giant foxtail, Setaria faberi); test: Test C postemergence, visual plant response rating
Method in brief: as §2

kochia (Bassia scoparia) [27] = test: Test C preemergence, visual plant response rating; conditions: Test C, 0 is no effect, 100 is complete control
Method in brief: as §2

[28] = system: Italian ryegrass (Lolium mutiflorum); test: Test C preemergence, visual plant response rating; conditions: Test C, 0 is no effect, 100 is complete control
Method in brief: as §2

[29] = system: barnyardgrass (Echinochloa crus-galli); test: Test C preemergence, visual plant response rating; conditions: Test C, 0 is no effect, 100 is complete control
Method in brief: as §2

[30] = system: ragweed (common ragweed, Ambrosia artemisiifolia); test: Test C preemergence, visual plant response rating; conditions: Test C, 0 is no effect, 100 is complete control
Method in brief: as §2

[31] = system: pigweed (Amaranthus retroflexus); test: Test C preemergence, visual plant response rating; conditions: Test C, 0 is no effect, 100 is complete control
Method in brief: as §2

[32] = system: foxtail, giant (giant foxtail, Setaria faberi); test: Test C preemergence, visual plant response rating; conditions: Test C, 0 is no effect, 100 is complete control
Method in brief: as §2

[33] = system: barnyardgrass (Echinochloa crus-galli); test: Test D flooded paddy test, visual plant response rating; conditions: 250 g ai/ha, scale 0 to 100 (0 no effect, 100 complete control), 13 to 15 d
Method in brief: (§3)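 Plants were grown to the 2-leaf stage, pots flooded to 3 cm above soil, and compound applied directly into the paddy water, with the depth held throughout. After 13 to 15 d in a greenhouse, response was rated visually against untreated controls on a 0–100 scale (0 no effect, 100 complete control).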

rice (Oryza sativa) = test: as above; conditions: 250 g ai/ha, scale 0 to 100 (0 no effect, 100 complete control), 13 to 15 d
Method in brief: as §3

[34] = system: sedge umbrella (small-flower umbrella sedge, Cyperus difformis); test: as above; conditions: 250 g ai/ha, scale 0 to 100 (0 no effect, 100 complete control), 13 to 15 d
Method in brief: as §3

[35] = system: duck salad (Heteranthera limosa); test: as above; conditions: 250 g ai/ha, scale 0 to 100 (0 no effect, 100 complete control), 13 to 15 d
Method in brief: as §3

[36] = Test C, postemergence, 125 g ai/ha

CO/N=C(\c1cccc(C)c1)c1c(O)c(C2CC2)nn(C)c1=O [Compound 27]
Foxtail, Green plant response rating (0 to 100 scale) [1]: 0 | Barnyardgrass plant response rating (0 to 100 scale) [2]: 10 | Ragweed plant response rating (0 to 100 scale) [3]: 10 | Ryegrass, Italian plant response rating (0 to 100 scale) [4]: 10 | Kochia plant response rating (0 to 100 scale) (kochia (Kochia scoparia) [5]): 0 | Pigweed plant response rating (0 to 100 scale) [6]: 0 | Blackgrass plant response rating (0 to 100 scale) [7]: 10 | Foxtail, Green plant response rating (0 to 100 scale) [8]: 0 | Barnyardgrass plant response rating (0 to 100 scale) [9]: 0 | Galium plant response rating (0 to 100 scale) [10]: 80 | Ragweed plant response rating (0 to 100 scale) [11]: 40 | Wheat plant response rating (0 to 100 scale) [12]: 20 | Ryegrass, Italian plant response rating (0 to 100 scale) [13]: 20 | Kochia plant response rating (0 to 100 scale) (kochia (Kochia scoparia) [14]): 0 | Pigweed plant response rating (0 to 100 scale) [15]: 30 | Corn plant response rating (0 to 100 scale) (corn (Zea mays) [16]): 0

Cc1nn(C)c(=O)c(C(=NOCC2CC2)c2cc(Cl)cc(Cl)c2Cl)c1O [Compound 293]
Kochia plant response rating (0 to 100 scale) (kochia (Bassia scoparia) [17]; Postemergence, 31 g ai/ha): 0 | Kochia plant response rating (0 to 100 scale) (kochia (Bassia scoparia) [17]; [36]): 30 | Blackgrass plant response rating (0 to 100 scale) ([18]; Postemergence, 31 g ai/ha): 0 | Blackgrass plant response rating (0 to 100 scale) [18, 36]: 0 | Ryegrass, Italian plant response rating (0 to 100 scale) ([19]; Postemergence, 31 g ai/ha): 100 | Ryegrass, Italian plant response rating (0 to 100 scale) [19, 36]: 100 | Barnyardgrass plant response rating (0 to 100 scale) ([20]; Postemergence, 31 g ai/ha): 20 | Barnyardgrass plant response rating (0 to 100 scale) [20, 36]: 50 | Galium plant response rating (0 to 100 scale) ([21]; Postemergence, 31 g ai/ha): 100 | Galium plant response rating (0 to 100 scale) [21, 36]: 100 | Ragweed plant response rating (0 to 100 scale) ([22]; Postemergence, 31 g ai/ha): 100 | Ragweed plant response rating (0 to 100 scale) [22, 36]: 100 | Wheat plant response rating (0 to 100 scale) ([23]; Postemergence, 31 g ai/ha): 40 | Wheat plant response rating (0 to 100 scale) [23, 36]: 70 | Pigweed plant response rating (0 to 100 scale) ([24]; Postemergence, 31 g ai/ha): 20 | Pigweed plant response rating (0 to 100 scale) [24, 36]: 40 | Corn plant response rating (0 to 100 scale) (corn (Zea mays) [25]; Postemergence, 31 g ai/ha): 0 | Corn plant response rating (0 to 100 scale) (corn (Zea mays) [25]; [36]): 10 | Foxtail, Giant plant response rating (0 to 100 scale) ([26]; Postemergence, 31 g ai/ha): 40 | Foxtail, Giant plant response rating (0 to 100 scale) [26, 36]: 80 | Kochia plant response rating (0 to 100 scale) (kochia (Bassia scoparia) [27]; 31 g ai/ha): 0 | Kochia plant response rating (0 to 100 scale) (kochia (Bassia scoparia) [27]; 125 g ai/ha): 0 | Ryegrass, Italian plant response rating (0 to 100 scale) ([28]; 31 g ai/ha): 30 | Ryegrass, Italian plant response rating (0 to 100 scale) ([28]; 125 g ai/ha): 100 | Barnyardgrass plant response rating (0 to 100 scale) ([29]; 31 g ai/ha): 0 | Barnyardgrass plant response rating (0 to 100 scale) ([29]; 125 g ai/ha): 0 | Ragweed plant response rating (0 to 100 scale) ([30]; 31 g ai/ha): 40 | Ragweed plant response rating (0 to 100 scale) ([30]; 125 g ai/ha): 100 | Pigweed plant response rating (0 to 100 scale) ([31]; 31 g ai/ha): 0 | Pigweed plant response rating (0 to 100 scale) ([31]; 125 g ai/ha): 70 | Foxtail, Giant plant response rating (0 to 100 scale) ([32]; 31 g ai/ha): 90 | Foxtail, Giant plant response rating (0 to 100 scale) ([32]; 125 g ai/ha): 100 | Plant response rating, Barnyardgrass (Flood) [33]: 0 | Plant response rating, Rice (Flood) (rice (Oryza sativa)): 0 | Plant response rating, Sedge, Umbrella (Flood) [34]: 0 | Plant response rating, Ducksalad (Flood) [35]: 0
